Data as given in ChEMBL document CHEMBL1201862, “PubChem BioAssay data set” (2004).
Active and inactive are the calls of the source.

Legend:
[1] = growth suppression of beta-catenin-knockout colon cells, dose response, cell-based, HCT116, human colon tumor (AID 1045); type: functional;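 further: HCT116 colon tumor cells with beta catenin knocked out; cells exposed to compound for 60 hours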
Integrin alpha-4 = Integrin alpha-4 (Homo sapiens, UniProt P13612); assay: VLA-4 integrin allosteric ligands, SAR follow-up, cell-based, LIBS antibody binding, flow cytometry (AID 488791); type: functional
[2] = test system: Streptococcus sp. 'group A'; assay: growth inhibition of control SK(-) GAS strain, dose response, counter-screen for streptokinase expression inhibitor project, luminescence, kanamycin, BacTiterGlo, confirmation (AID 1900); type: functional, organism-based
[3] = biological target: T1, Mannose-6-phosphate isomerase (Homo sapiens, UniProt P34949); assay: inhibitors of human PMI, primary screen, biochemical, fluorescence intensity, coupled assay (AID 1209)
T1 sequence (P34949 whole entry): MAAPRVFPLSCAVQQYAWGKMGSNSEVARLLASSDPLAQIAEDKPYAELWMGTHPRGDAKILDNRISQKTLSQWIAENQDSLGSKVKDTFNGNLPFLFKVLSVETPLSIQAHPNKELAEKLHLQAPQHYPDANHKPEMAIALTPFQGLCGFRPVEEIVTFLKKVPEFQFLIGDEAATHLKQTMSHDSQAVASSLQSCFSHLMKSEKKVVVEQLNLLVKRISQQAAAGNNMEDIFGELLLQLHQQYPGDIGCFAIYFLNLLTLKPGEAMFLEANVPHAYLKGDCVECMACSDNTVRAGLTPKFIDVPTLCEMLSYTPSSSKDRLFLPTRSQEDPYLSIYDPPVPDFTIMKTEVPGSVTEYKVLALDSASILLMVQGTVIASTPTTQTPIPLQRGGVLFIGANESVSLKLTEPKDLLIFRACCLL

[4] = biological target: Mothers against decapentaplegic homolog 3 (Homo sapiens, UniProt P84022); assay: SMAD3 transcription factor inhibitors, dose response (AID 715); type: functional
Streptococcus = assay: Group A Streptococcus viability loss, dose response, counter-screen for streptokinase expression inhibitor project, luminescence, BacTiterGlo (AID 1915); type: functional, organism-based;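 further: potency for reduction of bacterial viability or growth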
[5] = biological target: Dual specificity tyrosine-phosphorylation-regulated kinase 1A (Rattus norvegicus, UniProt Q63470); type: biochemical, Homo sapiens
[6] = biological target: T2, Mitochondrial peptide methionine sulfoxide reductase (Bos taurus, UniProt P54149); assay: Absorbance-based biochemical high throughput dose response assay for activators of Methionine sulfoxide reductase A (MsrA).; type: functional
T2 sequence (P54149 whole entry): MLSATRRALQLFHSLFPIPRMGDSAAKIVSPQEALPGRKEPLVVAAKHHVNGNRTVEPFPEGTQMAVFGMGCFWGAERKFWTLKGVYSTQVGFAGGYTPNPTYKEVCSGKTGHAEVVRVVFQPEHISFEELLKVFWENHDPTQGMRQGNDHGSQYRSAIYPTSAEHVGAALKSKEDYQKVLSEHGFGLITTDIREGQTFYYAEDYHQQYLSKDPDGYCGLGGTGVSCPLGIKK

[7] = miR-122 activators in hepatoma reporter cells, dose response, cell-based, Huh7 psiCHECK-miR122, Renilla luciferase, cherry-picked (AID 651956); type: functional;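 further: huh7 hepatoma cells stably carrying a psiCHECK-2 miR-122 sensor plasmid; renilla luciferase signal reporting endogenous miR-122 activity after 48 h compound exposure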
[8] = HEK293T cytotoxicity, dose response, cytotoxicity control for miR-122 modulator project, cell-based, activator set, cherry-pick (AID 720690); type: functional;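 further: HEK293T human cells scored for general mammalian cytotoxicity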
[9] = biological target: Voltage-gated N-type calcium channel alpha-1B subunit/Amyloid beta A4 precursor protein-binding family A member 1 (Homo sapiens, UniProt Q00975+Q02410); type: protein assay
[10] = biological target: T3, Small ubiquitin-related modifier 1 (Homo sapiens, UniProt P63165); assay: inhibitors of SUMO1 peptide binding, dose response, biochemical, fluorescence polarization, uHTS hits (AID 624382); type: functional; details: read-out: IC50_Mean
[11] = biological target: T3, Small ubiquitin-related modifier 1; assay: inhibitors of SUMO1 partner interactions, dose response, biochemical, FRET (AID 624383); type: functional; details: read-out: IC50_Mean
Protein Tat = biological target: T4, Protein Tat (Human immunodeficiency virus type 1 group M subtype B (isolate HXB2)(HIV-1), UniProt P04608); type: functional;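 further: tat binding to TAR RNA read out by fluorescence polarization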
T4 sequence (P04608 whole entry): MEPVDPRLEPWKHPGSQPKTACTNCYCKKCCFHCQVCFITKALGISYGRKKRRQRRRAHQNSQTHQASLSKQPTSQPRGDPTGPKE

Caspase-7 = Caspase-7 (Homo sapiens, UniProt P55210); assay: human caspase-7 inhibitors, dose response, selectivity assay for caspase-6 inhibitor project, biochemical, DEVD-R110 fluorescence, cherry-pick (AID 743295)
Beta-galactosidase = Beta-galactosidase (Escherichia coli, UniProt Q8VNN2); assay: beta-galactosidase enzyme inhibitors and activators, dose response, artefact control for CCR6 antagonist project, biochemical, E. coli enzyme, set 3 (AID 504712); type: functional
Nonstructural protein 1 = Nonstructural protein 1 (Influenza A virus, UniProt Q194T2); type: functional, Influenza A virus (A/California/07/2009(H1N1))
[12] = biological target: T2, Mitochondrial peptide methionine sulfoxide reductase; type: functional
[13] = biological target: T5, Type-1 angiotensin II receptor (Homo sapiens, UniProt P30556); assay: AT1 receptor agonists, dose response, selectivity assay for APJ receptor agonist project, cell-based, uHTS hits (AID 488865); type: functional;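 further: beta-arrestin recruitment to AT1 measured by enzyme fragment complementation luminescence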
T5 sequence (P30556 whole entry): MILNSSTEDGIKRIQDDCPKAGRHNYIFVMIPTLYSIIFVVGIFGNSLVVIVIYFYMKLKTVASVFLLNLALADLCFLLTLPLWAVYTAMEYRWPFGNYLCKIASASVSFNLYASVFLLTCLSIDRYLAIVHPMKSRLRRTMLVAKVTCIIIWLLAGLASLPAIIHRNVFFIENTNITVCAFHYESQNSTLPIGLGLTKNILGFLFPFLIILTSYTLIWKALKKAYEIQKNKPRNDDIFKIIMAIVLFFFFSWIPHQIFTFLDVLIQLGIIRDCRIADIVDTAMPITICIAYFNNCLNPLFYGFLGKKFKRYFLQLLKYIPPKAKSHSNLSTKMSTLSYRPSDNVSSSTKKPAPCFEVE

[14] = cytotoxicity in MIN6 insulinoma cells, dose response, cytotoxicity control, cell-based, mouse insulinoma (AID 2122); type: functional;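 further: confirmatory high-throughput counterscreen run to flag cytotoxic compounds; mouse MIN-6 beta cells carrying an insulin promoter eGFP reporter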
[15] = Counterscreen for AddAB inhibitors: absorbance-based bacterial cell-based high throughput dose response assay for inhibitors of bacterial viability. [Related pubchem assays (depositor defined):AID435030, AID449728, AID449731, AID488942, AID488955, AID488956]; type: functional
Jurkat = assay: SAR Analysis of small molecule inhibitors of T-cell specific antigen receptor-induced NF-kB activation in a Jurkat cell line using a luminescence assay - Set 2. [Related pubchem assays (depositor defined):AID435003, AID435012, AID465]; type: functional, cell-based; details: Homo sapiens
HEK293 = assay: SAR Analysis of small molecule inhibitors of T-cell specific antigen receptor-induced NF-kB activation in a HEK-293T cell line using a luminescence assay - Set 2. [Related pubchem assays (depositor defined):AID435003, AID435012, AID489026]; type: functional, cell-based; details: Homo sapiens

T3 sequence (P63165 whole entry): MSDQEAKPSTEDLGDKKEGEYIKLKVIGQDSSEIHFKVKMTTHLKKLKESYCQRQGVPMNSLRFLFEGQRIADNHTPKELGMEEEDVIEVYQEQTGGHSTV
Beta-galactosidase, sequence (Q8VNN2 whole entry): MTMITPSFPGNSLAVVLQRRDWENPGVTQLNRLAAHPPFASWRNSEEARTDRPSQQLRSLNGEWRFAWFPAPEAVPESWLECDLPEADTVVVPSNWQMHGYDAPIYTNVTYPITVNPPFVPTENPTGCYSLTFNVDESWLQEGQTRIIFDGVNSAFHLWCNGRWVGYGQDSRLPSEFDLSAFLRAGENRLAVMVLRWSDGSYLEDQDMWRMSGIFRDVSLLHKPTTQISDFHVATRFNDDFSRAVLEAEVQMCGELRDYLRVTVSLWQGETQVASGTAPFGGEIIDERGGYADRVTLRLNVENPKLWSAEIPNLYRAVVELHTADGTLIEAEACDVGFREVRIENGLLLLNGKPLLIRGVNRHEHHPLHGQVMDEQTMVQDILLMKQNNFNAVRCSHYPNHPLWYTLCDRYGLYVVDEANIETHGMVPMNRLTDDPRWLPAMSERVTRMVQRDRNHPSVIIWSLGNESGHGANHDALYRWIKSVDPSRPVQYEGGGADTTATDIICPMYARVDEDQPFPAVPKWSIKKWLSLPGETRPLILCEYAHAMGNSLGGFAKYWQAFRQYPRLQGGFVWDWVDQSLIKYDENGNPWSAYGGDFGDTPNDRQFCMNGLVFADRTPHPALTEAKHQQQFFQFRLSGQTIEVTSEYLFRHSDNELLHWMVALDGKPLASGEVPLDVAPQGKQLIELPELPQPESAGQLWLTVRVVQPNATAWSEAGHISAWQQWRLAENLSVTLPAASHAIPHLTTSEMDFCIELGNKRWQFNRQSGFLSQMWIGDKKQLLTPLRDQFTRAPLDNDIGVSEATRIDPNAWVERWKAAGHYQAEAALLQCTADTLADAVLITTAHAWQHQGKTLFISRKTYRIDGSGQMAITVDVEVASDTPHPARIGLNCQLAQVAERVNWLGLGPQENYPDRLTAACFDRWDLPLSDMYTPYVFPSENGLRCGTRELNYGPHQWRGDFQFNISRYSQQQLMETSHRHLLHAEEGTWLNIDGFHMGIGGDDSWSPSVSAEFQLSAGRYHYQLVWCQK
Caspase-7, sequence (P55210 24-198 limits assumed): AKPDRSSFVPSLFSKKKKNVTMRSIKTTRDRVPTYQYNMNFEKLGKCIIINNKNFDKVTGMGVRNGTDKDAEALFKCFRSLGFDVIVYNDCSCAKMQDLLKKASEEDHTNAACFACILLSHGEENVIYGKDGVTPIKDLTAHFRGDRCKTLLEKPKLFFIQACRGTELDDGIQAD
Caspase-7, sequence (P55210 207-303 limits assumed): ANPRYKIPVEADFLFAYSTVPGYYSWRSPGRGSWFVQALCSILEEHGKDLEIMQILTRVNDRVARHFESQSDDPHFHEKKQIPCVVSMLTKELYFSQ
Voltage-gated N-type calcium channel alpha-1B subunit/Amyloid beta A4 precursor protein-binding family A member 1, sequence (Q00975 whole entry): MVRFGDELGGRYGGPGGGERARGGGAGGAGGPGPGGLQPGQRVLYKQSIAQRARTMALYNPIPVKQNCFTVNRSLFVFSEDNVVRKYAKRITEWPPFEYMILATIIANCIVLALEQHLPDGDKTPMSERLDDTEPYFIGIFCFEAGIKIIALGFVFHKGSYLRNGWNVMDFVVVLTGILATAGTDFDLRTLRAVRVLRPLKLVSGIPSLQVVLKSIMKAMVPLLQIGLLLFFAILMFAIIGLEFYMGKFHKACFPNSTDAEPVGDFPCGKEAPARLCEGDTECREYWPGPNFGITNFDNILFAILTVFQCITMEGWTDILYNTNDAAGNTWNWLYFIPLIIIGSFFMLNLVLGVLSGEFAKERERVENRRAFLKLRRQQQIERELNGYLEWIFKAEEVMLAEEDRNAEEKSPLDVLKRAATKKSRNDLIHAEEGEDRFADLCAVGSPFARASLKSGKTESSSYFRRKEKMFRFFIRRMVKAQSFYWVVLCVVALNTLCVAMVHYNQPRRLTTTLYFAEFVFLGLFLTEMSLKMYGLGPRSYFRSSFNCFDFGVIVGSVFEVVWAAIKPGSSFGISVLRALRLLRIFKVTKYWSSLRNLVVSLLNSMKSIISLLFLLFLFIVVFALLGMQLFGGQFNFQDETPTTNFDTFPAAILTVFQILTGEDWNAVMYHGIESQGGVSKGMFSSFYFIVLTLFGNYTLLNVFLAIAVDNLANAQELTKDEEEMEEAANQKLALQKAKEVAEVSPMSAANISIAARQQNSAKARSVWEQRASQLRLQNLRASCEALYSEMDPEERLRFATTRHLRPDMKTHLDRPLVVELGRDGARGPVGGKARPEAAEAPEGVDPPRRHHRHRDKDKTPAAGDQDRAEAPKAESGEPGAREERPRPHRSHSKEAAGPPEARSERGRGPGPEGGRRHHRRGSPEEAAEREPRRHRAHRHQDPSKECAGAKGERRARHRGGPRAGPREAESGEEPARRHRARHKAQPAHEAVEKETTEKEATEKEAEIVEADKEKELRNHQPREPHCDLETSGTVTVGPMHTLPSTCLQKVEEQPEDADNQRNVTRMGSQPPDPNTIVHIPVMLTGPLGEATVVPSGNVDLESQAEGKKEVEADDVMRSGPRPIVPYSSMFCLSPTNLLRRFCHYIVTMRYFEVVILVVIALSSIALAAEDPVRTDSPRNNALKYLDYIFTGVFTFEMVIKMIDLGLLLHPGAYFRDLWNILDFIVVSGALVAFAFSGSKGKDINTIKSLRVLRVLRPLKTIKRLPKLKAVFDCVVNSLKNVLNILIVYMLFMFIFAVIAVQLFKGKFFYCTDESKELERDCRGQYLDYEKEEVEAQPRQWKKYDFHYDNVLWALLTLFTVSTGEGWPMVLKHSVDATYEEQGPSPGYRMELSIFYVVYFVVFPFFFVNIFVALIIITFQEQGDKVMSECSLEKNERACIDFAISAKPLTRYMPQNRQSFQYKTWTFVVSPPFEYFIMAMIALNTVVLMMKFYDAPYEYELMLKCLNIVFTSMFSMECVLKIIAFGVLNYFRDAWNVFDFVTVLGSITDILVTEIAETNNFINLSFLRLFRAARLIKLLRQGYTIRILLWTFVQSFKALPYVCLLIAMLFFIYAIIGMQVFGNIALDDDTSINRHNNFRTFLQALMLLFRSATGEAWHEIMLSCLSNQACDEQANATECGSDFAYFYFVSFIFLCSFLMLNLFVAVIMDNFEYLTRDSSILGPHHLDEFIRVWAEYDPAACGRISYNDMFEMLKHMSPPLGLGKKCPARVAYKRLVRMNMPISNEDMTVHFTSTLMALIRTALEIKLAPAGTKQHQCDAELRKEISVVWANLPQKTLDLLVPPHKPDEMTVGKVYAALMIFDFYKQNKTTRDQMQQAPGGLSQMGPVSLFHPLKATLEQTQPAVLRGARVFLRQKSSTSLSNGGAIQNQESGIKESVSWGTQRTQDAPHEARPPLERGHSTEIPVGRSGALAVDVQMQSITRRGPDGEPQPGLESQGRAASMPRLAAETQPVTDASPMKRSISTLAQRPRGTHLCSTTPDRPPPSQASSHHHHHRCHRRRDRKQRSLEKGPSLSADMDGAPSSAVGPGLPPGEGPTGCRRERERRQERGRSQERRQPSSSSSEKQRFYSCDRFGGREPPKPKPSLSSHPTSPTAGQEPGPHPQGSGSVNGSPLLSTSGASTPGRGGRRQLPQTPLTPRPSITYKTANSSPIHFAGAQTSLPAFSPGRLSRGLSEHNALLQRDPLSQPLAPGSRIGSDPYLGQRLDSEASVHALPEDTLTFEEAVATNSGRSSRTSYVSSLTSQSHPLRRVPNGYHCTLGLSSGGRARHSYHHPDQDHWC
Voltage-gated N-type calcium channel alpha-1B subunit/Amyloid beta A4 precursor protein-binding family A member 1, sequence (Q02410 whole entry): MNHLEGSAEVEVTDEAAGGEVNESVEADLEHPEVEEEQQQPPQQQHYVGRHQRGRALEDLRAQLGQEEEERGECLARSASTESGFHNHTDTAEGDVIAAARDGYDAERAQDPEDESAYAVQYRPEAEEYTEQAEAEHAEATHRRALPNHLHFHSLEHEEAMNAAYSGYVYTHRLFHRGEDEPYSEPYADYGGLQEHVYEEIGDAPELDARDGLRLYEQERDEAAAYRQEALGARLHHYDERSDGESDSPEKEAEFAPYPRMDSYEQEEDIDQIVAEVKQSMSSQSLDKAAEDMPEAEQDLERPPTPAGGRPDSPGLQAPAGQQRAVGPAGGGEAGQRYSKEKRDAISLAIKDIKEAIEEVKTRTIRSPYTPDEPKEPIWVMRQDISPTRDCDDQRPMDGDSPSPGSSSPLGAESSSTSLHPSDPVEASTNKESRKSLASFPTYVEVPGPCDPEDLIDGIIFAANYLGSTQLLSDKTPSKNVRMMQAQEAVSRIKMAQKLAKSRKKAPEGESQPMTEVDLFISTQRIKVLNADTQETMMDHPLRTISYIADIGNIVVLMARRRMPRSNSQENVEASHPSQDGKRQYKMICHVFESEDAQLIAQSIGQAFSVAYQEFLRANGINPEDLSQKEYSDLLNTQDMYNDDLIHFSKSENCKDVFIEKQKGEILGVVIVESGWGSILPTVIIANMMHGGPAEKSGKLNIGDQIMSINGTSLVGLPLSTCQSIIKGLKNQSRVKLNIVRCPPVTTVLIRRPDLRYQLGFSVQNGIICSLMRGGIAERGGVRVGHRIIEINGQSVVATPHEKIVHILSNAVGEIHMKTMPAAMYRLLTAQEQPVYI
Nonstructural protein 1, sequence (Q194T2 whole entry): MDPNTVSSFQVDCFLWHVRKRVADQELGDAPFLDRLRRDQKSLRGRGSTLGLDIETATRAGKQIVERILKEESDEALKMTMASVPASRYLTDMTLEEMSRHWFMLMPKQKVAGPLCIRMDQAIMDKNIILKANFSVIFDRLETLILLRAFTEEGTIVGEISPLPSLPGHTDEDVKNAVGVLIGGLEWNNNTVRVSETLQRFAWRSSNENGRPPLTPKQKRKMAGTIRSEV

## COC(=O)[C@@H]1[C@@H](C(=O)OC)C2(c3ccccc3-c3ccccc32)N(c2ccc(Cl)cc2)N1C#N
[1]
  EC50: 8.83 µM (active)
Integrin alpha-4
  EC50: > 49.2 µM (inactive)

## Nc1ccc2c(c1)C(=O)C(=O)c1ccccc1-2
[2]
  EC50: 0.46 µM (active)
[3]
  IC50: > 50 µM (not active)
[4]
  IC50: 9.89 µM (active)
Streptococcus
  EC50: 4.95 µM (active)
[5]
  AC50: 0.547 µM (active)
[6]
  EC50: 9.09 µM (active)
[7]
  AC50: 10.7 µM (active)
[8]
  AC50: 6.54 µM (active)

## COc1cc(-c2ccc(Nc3ccccc3C(=O)O)c(OC)c2)ccc1Nc1ccccc1C(=O)O
[9]
  IC50: 30 µM (active)
[10]
  IC50: 0.647 µM (active)
[11]
  IC50: 3.9 µM (active)
Protein Tat
  IC50: 12.7 µM (inconclusive)

## COc1ccc(OC)c(Nc2cc3ccccc3c(O)n2)c1
Caspase-7
  AC50: 5.9 µM (active)

## COC(CNC(=O)c1ccc2c3c(onc13)-c1ccccc1C2=O)OC
Beta-galactosidase
  IC50: > 66.6 µM (inactive)
Nonstructural protein 1
  IC50: 82.4 µM (active)

## O=C(O)c1ccc(NC2=C/C(=N/S(=O)(=O)c3ccccc3)c3ccccc3C2=O)cc1
[12]
  IC50: 6.42 µM (active)

## Cc1ccc2nc(/C(C#N)=C\c3ccc([N+](=O)[O-])o3)[nH]c2c1
[13]
  EC50: > 100 µM (inactive)

## CCCC(=O)NC(c1ccccc1OC)c1ccc2cccnc2c1O (stereo not drawn)
[14]
  IC50: 1.91 µM (active)
[15]
  IC50: > 119 µM (inactive)
Jurkat
  IC50: 5.16 µM (active)
HEK293
  IC50: 3.97 µM (active)
